Assay results reported in ChEMBL document CHEMBL1130953, “Synthesis of 6-O-methyl-azithromycin and its ketolide analogue via Beckmann rearrangement of 9(E)-6-O-methyl-erythromycin oxime” (1998).
Converted amounts (≈) assume the structure as drawn.

Key:
Format in all cases: functional
Escherichia coli = test: Compound was tested for antibacterial activity against Escherichia coli 250 UC5 using standard broth microdilution assay.
Streptococcus pneumoniae [1] = test: Compound was tested for antibacterial activity against Streptococcus pneumoniae 030SJ1 EryRc using standard broth microdilution assay.
Staphylococcus aureus = test: Compound was tested for antibacterial activity against Staphylococcus aureus 011UC4 using standard broth microdilution assay.
Haemophilus influenzae = test: Compound was tested for antibacterial activity against Haemophilus influenzae 351HT3 using standard broth microdilution assay.
Streptococcus pyogenes = test: Compound was tested for antibacterial activity against Streptococcus pyogenes 02A1UC1 using standard broth microdilution assay.
Streptococcus pneumoniae [2] = test: Compound was tested for antibacterial activity against Streptococcus pneumoniae 030SJ5i EryRi using standard broth microdilution assay.
Streptococcus pneumoniae [3] = test: Compound was tested for antibacterial activity against Streptococcus pneumoniae 032UC1 using standard broth microdilution assay.

Row | SMILES | MIC (Escherichia coli) | MIC (Streptococcus pneumoniae [1]) | MIC (Staphylococcus aureus) | MIC (Haemophilus influenzae) | MIC (Streptococcus pyogenes) | MIC (Streptococcus pneumoniae [2]) | MIC (Streptococcus pneumoniae [3])
1 | CC[C@H]1OC(=O)[C@H](C)[C@@H](O[C@H]2C[C@@](C)(OC)[C@@H](O)[C@H](C)O2)[C@H](C)[C@@H](O[C@@H]2O[C@H](C)C[C@H](N(C)C)[C@H]2O)[C@](C)(OC)C[C@@H](C)CN(C)[C@H](C)[C@@H](O)[C@]1(C)O | 20 µg/mL (≈ 26.2 µM) | > 40 µg/mL | 1.2 µg/mL (≈ 1.57 µM) | 2.5 µg/mL (≈ 3.28 µM) | 0.15 µg/mL (≈ 0.197 µM) | > 40 µg/mL | 0.15 µg/mL (≈ 0.197 µM)
2 | CC[C@H]1OC(=O)[C@H](C)C(=O)[C@H](C)[C@@H](OC2O[C@H](C)C[C@H](N(C)C)[C@H]2O)[C@](C)(OC)C[C@@H](C)C(=O)[C@H](C)[C@H]2N(CCCCn3cnc(-c4cccnc4)c3)C(=O)O[C@]12C (some centres not stated) | 10 µg/mL (≈ 12.3 µM) | 0.02 µg/mL (≈ 0.0246 µM) | 0.04 µg/mL (≈ 0.0493 µM) | 1.2 µg/mL (≈ 1.48 µM) | 0.02 µg/mL (≈ 0.0246 µM) | 0.02 µg/mL (≈ 0.0246 µM) | 0.02 µg/mL (≈ 0.0246 µM)
3 | CC[C@H]1OC(=O)[C@H](C)[C@@H](O[C@H]2C[C@@](C)(OC)[C@@H](O)[C@H](C)O2)[C@H](C)[C@@H](O[C@@H]2O[C@H](C)C[C@H](N(C)C)[C@H]2O)[C@](C)(O)C[C@@H](C)CN(C)[C@H](C)[C@@H](O)[C@]1(C)O [AZITHROMYCIN] | 20 µg/mL (≈ 26.7 µM) | 40 µg/mL (≈ 53.4 µM) | 0.3 µg/mL (≈ 0.401 µM) | 1.2 µg/mL (≈ 1.6 µM) | 0.6 µg/mL (≈ 0.801 µM) | 40 µg/mL (≈ 53.4 µM) | 0.15 µg/mL (≈ 0.2 µM)

Second part, the molecule after the results:

Row | MIC (Escherichia coli) | MIC (Streptococcus pneumoniae [1]) | MIC (Staphylococcus aureus) | MIC (Haemophilus influenzae) | MIC (Streptococcus pyogenes) | MIC (Streptococcus pneumoniae [2]) | MIC (Streptococcus pneumoniae [3]) | SMILES
4 | 40 µg/mL (≈ 53.7 µM) | 40 µg/mL (≈ 53.7 µM) | 20 µg/mL (≈ 26.8 µM) | 10 µg/mL (≈ 13.4 µM) | 40 µg/mL (≈ 53.7 µM) | 40 µg/mL (≈ 53.7 µM) | 40 µg/mL (≈ 53.7 µM) | CC[C@H]1OC(=O)[C@H](C)[C@@H](O[C@H]2C[C@@](C)(OC)[C@@H](O)[C@H](C)O2)[C@H](C)[C@@H](O[C@@H]2O[C@H](C)C[C@H](N(C)C)[C@H]2O)[C@](C)(OC)C[C@@H](C)C2=N[C@H](C)[C@@H](O2)[C@]1(C)O
5 | 40 µg/mL (≈ 52.4 µM) | 40 µg/mL (≈ 52.4 µM) | 1.2 µg/mL (≈ 1.57 µM) | 2.5 µg/mL (≈ 3.28 µM) | 0.6 µg/mL (≈ 0.786 µM) | 10 µg/mL (≈ 13.1 µM) | 1.2 µg/mL (≈ 1.57 µM) | CC[C@H]1OC(=O)[C@H](C)[C@@H](O[C@H]2C[C@@](C)(OC)[C@@H](O)[C@H](C)O2)[C@H](C)[C@@H](OC2O[C@H](C)C[C@H](N(C)C)[C@H]2O)[C@](C)(OC)C[C@@H](C)C(=O)N[C@H](C)[C@@H](O)[C@]1(C)O (some centres not stated)
6 | 40 µg/mL (≈ 66.4 µM) | 40 µg/mL (≈ 66.4 µM) | 40 µg/mL (≈ 66.4 µM) | 40 µg/mL (≈ 66.4 µM) | 40 µg/mL (≈ 66.4 µM) | 40 µg/mL (≈ 66.4 µM) | 40 µg/mL (≈ 66.4 µM) | CC[C@H]1OC(=O)[C@H](C)C(=O)[C@H](C)[C@@H](O[C@@H]2O[C@H](C)C[C@H](N(C)C)[C@H]2O)[C@](C)(OC)C[C@@H](C)CN(C)[C@H](C)[C@@H](O)[C@]1(C)O
